Test results: patent US20070049564A1 (Wyeth, priority 2005, published 2007)
≈ marks a conversion by molar mass, not a printed value. Read-outs that look alike come from different tables or passages of the source.

Tests used:
[1] = system: E. coli GC 4560; experiment: MIC, broth microdilution; conditions: Escherichia coli, GC4560, E. coli GC 4560
Description: (§1) Antimicrobial susceptibility testing. The in vitro activities of the antibiotics are determined by the broth microdilution method as recommended by the National Committee for Clinical Laboratory Standards (NCCLS) (1). Mueller-Hinton II broth (MHBII)(BBL Cockeysville, Md.) is the medium employed in the testing procedures. Microtiter plates containing serial dilutions of each antimicrobial agent are inoculated with each organism to yield the appropriate density (10^5 CFU/ml) in a 100 μl final volume. The plates are incubated for 18-22 hours at 35° C. in ambient air.
(§2) Representative compounds were first incubated in mouse serum for an hour prior to the in vitro testing against a panel of selected gram-positive and gram-negative bacteria strains. All compounds were also pre-incubated in water for an hour prior to testing as control. Representative compounds of Formula I were incubated in human serum prior to MIC determination.

[2] = system: E. faecalis GC 4555; experiment: MIC, broth microdilution; conditions: Enterococcus faecalis, GC4555, E. faecalis GC 4555
[3] = system: E. coli GC 2203; experiment: MIC, broth microdilution; conditions: Escherichia coli, GC2203, E. coli GC 2203
[4] = system: E. coli GC 2232; experiment: MIC, broth microdilution; conditions: Escherichia coli, GC2232, E. coli GC 2232
[5] = system: S. aureus GC 6467; experiment: MIC, broth microdilution; conditions: Staphylococcus aureus, GC6467, S. aureus GC 6467
[6] = system: S. aureus GC 4536; experiment: MIC, broth microdilution; conditions: Staphylococcus aureus, GC4536, S. aureus GC 4536
[7] = system: E. coli GC 6465; experiment: MIC, broth microdilution; conditions: Escherichia coli, GC6465, E. coli GC 6465
[8] = system: E. faecalis GC 2265; experiment: MIC, broth microdilution; conditions: Enterococcus faecalis, GC2265, E. faecalis GC 2265
[9] = system: E. coli; experiment: Range of MIC for E. coli strains; conditions: Escherichia coli
[10] = system: E. coli GC 2231; experiment: MIC, broth microdilution; conditions: Escherichia coli, GC2231, E. coli GC 2231
[11] = system: E. coli GC 2272; experiment: MIC, broth microdilution; conditions: Escherichia coli, GC2272, E. coli GC 2272
Description: as §1, §2

[12] = system: S. typhimurium GC 2172; experiment: MIC, broth microdilution; conditions: Salmonella enterica, TYPHIMURIUM, S. typhimurium GC 2172
[13] = system: E. faecalis GC 2267; experiment: MIC, broth microdilution; conditions: Enterococcus faecalis, GC2267, E. faecalis GC 2267
[14] = system: E. coli GC 3226; experiment: MIC, broth microdilution; conditions: Escherichia coli, GC3226, E. coli GC 3226
[15] = system: Staph.; experiment: Range of MIC for Staph. strains, including MRSA; conditions: Staphylococcus aureus, MRSA
[16] = system: S. aureus GC 6466; experiment: MIC, broth microdilution; conditions: Staphylococcus aureus, GC6466, S. aureus GC 6466
[17] = system: S. agalactiae GC 4564; experiment: MIC, broth microdilution; conditions: Streptococcus agalactiae, GC4564, S. agalactiae GC 4564
[18] = system: S. aureus GC 6469; experiment: MIC, broth microdilution; conditions: Staphylococcus aureus, GC6469, S. aureus GC 6469
[19] = system: E. faecium GC 2243; experiment: MIC, broth microdilution; conditions: Enterococcus faecium, GC2243, E. faecium GC 2243
[20] = system: S. pneumoniae* GC 4465; experiment: MIC, broth microdilution; conditions: Streptococcus pneumoniae, S. pneumoniae* GC 4465

## CCCN(CC(=O)Nc1cc(N(C)C)c2c(c1O)C(=O)C1=C(O)[C@]3(O)C(=O)C(C(N)=O)=C(O)[C@@H](N(C)C)[C@@H]3C[C@@H]1C2)C(=O)OCOC(=O)C1CCC1 [Example 7, ({[(2-{[(5aR,6aS,7S,10aS)-9-(aminocarbonyl)-4,7-bis(dimethylamino)-1,8,10a,11-tetrahydroxy-10,12-dioxo-5,5a,6,6a,7,10,10a,12-octahydrotetracen-2-yl]amino}-2-oxoethyl)(propyl)amino]carbonyl}oxy)methyl cyclobutanecarboxylate]
[1]; Mouse Serum pre-incubation
  MIC: 0.25 µg/mL (≈ 0.344 µM)
[1]; Water pre-incubation
  MIC: 0.5 µg/mL (≈ 0.687 µM)
[2]; Mouse Serum pre-incubation
  MIC: 0.5 µg/mL (≈ 0.687 µM)
[2]; Water pre-incubation
  MIC: 1 µg/mL (≈ 1.37 µM)
[3]; Mouse Serum pre-incubation
  MIC: 0.5 µg/mL (≈ 0.687 µM)
[3]; Water pre-incubation
  MIC: 4 µg/mL (≈ 5.5 µM)
[4]; Mouse Serum pre-incubation
  MIC: 0.5 µg/mL (≈ 0.687 µM)
[4]; Water pre-incubation
  MIC: 4 µg/mL (≈ 5.5 µM)
[5]; Mouse Serum pre-incubation
  MIC: 4 µg/mL (≈ 5.5 µM)
[5]; Water pre-incubation
  MIC: 4 µg/mL (≈ 5.5 µM)
[6]; Mouse Serum pre-incubation
  MIC: 1 µg/mL (≈ 1.37 µM)
[6]; Water pre-incubation
  MIC: 1 µg/mL (≈ 1.37 µM)
[7]; Mouse Serum pre-incubation
  MIC: 16 µg/mL (≈ 22 µM)
[7]; Water pre-incubation
  MIC: > 64 µg/mL
[8]; Mouse Serum pre-incubation
  MIC: 1 µg/mL (≈ 1.37 µM)
[8]; Water pre-incubation
  MIC: 2 µg/mL (≈ 2.75 µM)
[9]; 20 h, read-out: Range of MIC, E. coli (Mouse Serum)
  MIC: 0.25 to 2 µg/mL (≈ 0.344 to 2.75 µM)
[9]; read-out: Range of MIC, E. coli (Water)
  MIC: 2 to 16 µg/mL (≈ 2.75 to 22 µM)
[9]; read-out: Range of MIC, E. coli (mouse serum)
  MIC: 0.25 to 2 µg/mL (≈ 0.344 to 2.75 µM)
[9]; read-out: Range of MIC, E. coli (water)
  MIC: 2 to 16 µg/mL (≈ 2.75 to 22 µM)
[10]; Mouse Serum pre-incubation
  MIC: 2 µg/mL (≈ 2.75 µM)
[10]; Water pre-incubation
  MIC: 16 µg/mL (≈ 22 µM)
[11]; Mouse Serum pre-incubation
  MIC: 0.5 µg/mL (≈ 0.687 µM)
[11]; Water pre-incubation
  MIC: 4 µg/mL (≈ 5.5 µM)
[12]; Mouse Serum pre-incubation
  MIC: 4 µg/mL (≈ 5.5 µM)
[12]; Water pre-incubation
  MIC: > 64 µg/mL
[13]; Mouse Serum pre-incubation
  MIC: 1 µg/mL (≈ 1.37 µM)
[13]; Water pre-incubation
  MIC: 2 µg/mL (≈ 2.75 µM)
[14]; Mouse Serum pre-incubation
  MIC: 0.5 µg/mL (≈ 0.687 µM)
[14]; Water pre-incubation
  MIC: 8 µg/mL (≈ 11 µM)
[15]; read-out: Range of MIC, Staph (Mouse Serum)
  MIC: 0.5 to 4 µg/mL (≈ 0.687 to 5.5 µM)
[15]; read-out: Range of MIC, Staph (Water)
  MIC: 0.5 to 4 µg/mL (≈ 0.687 to 5.5 µM)
[15]; read-out: Range of MIC, Staph. (mouse serum)
  MIC: 0.5 to 4 µg/mL (≈ 0.687 to 5.5 µM)
[15]; read-out: Range of MIC, Staph. (water)
  MIC: 0.5 to 4 µg/mL (≈ 0.687 to 5.5 µM)
[16]; Mouse Serum pre-incubation
  MIC: 0.5 µg/mL (≈ 0.687 µM)
[16]; Water pre-incubation
  MIC: 0.5 µg/mL (≈ 0.687 µM)
[17]; Mouse Serum pre-incubation
  MIC: 0.25 µg/mL (≈ 0.344 µM)
[17]; Water pre-incubation
  MIC: 0.5 µg/mL (≈ 0.687 µM)
[18]; Mouse Serum pre-incubation
  MIC: 2 µg/mL (≈ 2.75 µM)
[18]; Water pre-incubation
  MIC: 4 µg/mL (≈ 5.5 µM)
[19]; Mouse Serum pre-incubation
  MIC: 0.25 µg/mL (≈ 0.344 µM)
[19]; Water pre-incubation
  MIC: 0.12 µg/mL (≈ 0.165 µM)
[20]; Mouse Serum pre-incubation
  MIC: 0.25 µg/mL (≈ 0.344 µM)
[20]; Water pre-incubation
  MIC: 0.12 µg/mL (≈ 0.165 µM)
